“Also recorded” adds a separate entry of the source.
Assays:
[1] = tested on: IFNb, CXCL-10, CXCL-9, CCL-2, TNFα, IL-1β, and IL-6 in lymph nodes; test: Innate immune response in mice after intramuscular injection of STING agonists (qPCR of cytokines in draining lymph nodes); assay type: in vivo; settings: 20 μg intramuscular, 6 hrs
[2] = tested on: IFNγ, TNFα and IL-4 secretion; design: species or system mice; settings: mouse, in vivo
[3] = tested on: HIV NHR trimer (N3G); assay type: in vivo; settings: mice, CF501 as adjuvant, sera 7 days after the second vaccination
[4] = tested on: cytokines in draining lymph nodes; settings: mouse, in vivo
[5] = tested on: SARS-CoV-2 pseudovirus; design: species or system New Zealand white rabbits; settings: rabbit, in vivo

SMILES | production of the cytokines in lymph nodes [1] | neutralizing antibodies relative to Alum (in words) [5] | other results
CCn1nc(C)cc1C(=O)Nc1nc2cc(C(N)=O)cnc2n1C/C=C/Cn1c(NC(=O)c2cc(C)nn2CC)nc2cc(C(N)=O)cc(OCCCN3CCOCC3)c21 [CF501, (E)-3-(4-(5-carbamoyl-2-(1-ethyl-3-methyl-1H-pyrazole-5-carboxamido)-7-(3-morpholinopropoxy)-1H-benzo[d]imidazol-1-yl)but-2-en-1-yl)-2-(1-ethyl-3-methyl-1H-pyrazole-5-carboxamido)-3H-imidazo[4,5-b]pyridine-6-carboxamide] | can activate a large production of the cytokines; also recorded: more potently than cGAMP | – | T cell immune response in mice [2]: can strongly activate the T cell immune response in mice; antibody immune response to the HIV NHR trimer (N3G) [3]: can significantly enhance the antibody immune response in vaccinated mice; inflammation in the mice (transient activation, safety) [4]: does not cause inflammation in the mice
CCn1nc(C)cc1C(=O)Nc1nc2cc(C(N)=O)ccc2n1C/C=C/Cn1c(NC(=O)c2cc(C)nn2CC)nc2cc(C(N)=O)cnc21 [CF502, (E)-3-(4-(5-carbamoyl-2-(1-ethyl-3-methyl-1H-pyrazole-5-carboxamido)-1H-benzo[d]imidazol-1-yl)but-2-en-1-yl)-2-(1-ethyl-3-methyl-1H-pyrazole-5-carboxamido)-3H-imidazo[4,5-b]pyridine-6-carboxamide] | – | could not induce more potent neutralizing antibodies relative to Alum in the rabbits | –
CCn1nc(C)cc1C(=O)Nc1nc2cc(C(N)=O)cnc2n1C/C=C/Cn1c(NC(=O)c2cc(C)nn2CC)nc2cc(C(N)=O)cc(OCCCN3CCNCC3)c21 [CF508, (E)-3-(4-(5-carbamoyl-2-(1-ethyl-3-methyl-1H-pyrazole-5-carboxamido)-7-(3-(piperazin-1-yl)propoxy)-1H-benzo[d]imidazol-1-yl)but-2-en-1-yl)-2-(1-ethyl-3-methyl-1H-pyrazole-5-carboxamido)-3H-imidazo[4,5-b]pyridine-6-carboxamide] | – | could not induce more potent neutralizing antibodies relative to Alum in the rabbits | –
CCn1nc(C)cc1C(=O)Nc1nc2cc(C(N)=O)cnc2n1C/C=C/Cn1c(NC(=O)c2cc(C)nn2CC)nc2cc(C(N)=O)cc(OCCN3CCOCC3)c21 [CF510, (E)-3-(4-(5-carbamoyl-2-(1-ethyl-3-methyl-1H-pyrazole-5-carboxamido)-7-(2-morpholinoethoxy)-1H-benzo[d]imidazol-1-yl)but-2-en-1-yl)-2-(1-ethyl-3-methyl-1H-pyrazole-5-carboxamido)-3H-imidazo[4,5-b]pyridine-6-carboxamide] | – | could not induce more potent neutralizing antibodies relative to Alum in the rabbits | –
CCn1nc(C)cc1C(=O)/N=c1\n(C)c2cc(C(N)=O)cnc2n1C/C=C/Cn1/c(=N/C(=O)c2cc(C)nn2CC)n(C)c2cc(C(N)=O)cc(OCCCN3CCOCC3)c21 [CF512, (E)-3-((E) 4-((E)-5-carbamoyl-2-((1-ethyl-3-methyl-1H-pyrazole-5-carbonyl)imino)-3-methyl-7-(3-morpholinopropoxy)-2,3-dihydro-1H-benzo[d]imidazol-1-yl)but-2-en-1-yl)-2-((1-ethyl-3-methyl-1H-pyrazole-5-carbonyl)imino)-1-methyl-2,3-dihydro-1H-imidazo[4,5-b]pyridine-6-carboxamide] | – | could not induce more potent neutralizing antibodies relative to Alum in the rabbits | –
Nc1nc2c(ncn2[C@@H]2O[C@@H]3COP(=O)(O)O[C@H]4[C@@H](O)[C@H](n5cnc6c(N)ncnc65)O[C@@H]4COP(=O)(O)O[C@H]3[C@H]2O)c(=O)[nH]1 [cGAMP, 3′-3′ cGAMP, reference compound] | can activate a large production of the cytokines | – | –

Source: patent US20240002383A1 (priority 2021, published 2024)
